Values of other authors in patent US11311556B2, “Topical dutasteride emulsions for treating endocrine therapy-induced alopecia” (Varsona Therapeutics, Inc., priority 2020, dated 2022).
Like-named read-outs stand apart in the source and are kept apart here.

Tests used:
DHT = conditions: oral, subjects with BPH
[1] = 416 men, 12 to 24 weeks

For `CC(C)(C)NC(=O)[C@H]1CC[C@H]2[C@@H]3CC[C@H]4NC(=O)C=C[C@]4(C)[C@H]3CC[C@]12C` [oral finasteride, finasteride], the DHT blocked (DHT; 5 mg daily dose) is listed as 70.8+/−18.3%.

In the case of `C[C@]12C=CC(=O)N[C@@H]1CC[C@@H]1[C@@H]2CC[C@]2(C)[C@@H](C(=O)Nc3cc(C(F)(F)F)ccc3C(F)(F)F)CC[C@@H]12` [oral dutasteride, (5α, 17β)-N-{2,5 bis(trifluoromethyl)phenyl}-3-oxo-4-azaandrost-1-ene-17-carboxamide], the DHT blocked (DHT; 0.5 mg daily dose) is given as 94.7+/−3.3%, the DHT blocked (DHT; 5 mg daily dose) is given as 98.4% and the “Hair count results versus oral finasteride” value [1] is given as “better hair count results than oral finasteride”.
